The text below walks through data of patent US20240226310A1, “Lipid Nanoparticle Therapeutics that Evade the Immune Response” (The Trustees of the University of Pennsylvania, priority 2021, published 2024).

The subject of the data set is pro-inflammatory cytokines. In words: Pro-inflammatory cytokines in systemic mouse model of inflammation (IV-LPS). It is filed as in vivo, mice.
The mark [1] stands for this setting: removal of macrophages, LPS-treated mice which received LNP-mRNAs.

For `O=P(O)(O)C(Cl)(Cl)P(=O)(O)O` [Clodronate], where the note is “IV treatment, LPS model of systemic inflammation”, the systemic pro-inflammatory cytokines/markers result was “reduces systemic pro-inflammatory markers”. Besides, under setting [1], the IL-6 in blood entry was “significantly lowered” and the “MIP-2 in liver homogenate” value was “significantly lowered”.
